According to patent US20220304958A1, “SMALL MOLECULE INHIBITORS OF A PROTEIN COMPLEX” (THE REGENTS OF THE UNIVERSITY OF CALIFORNIA, priority 2019, published 2022):

Tests used:
PARD3 binding to HEG1 = assay: PARD3 pulldown assay with HEG1 matrix; parameters: species or system human (HUVEC lysates); conditions: 35 μM compound, HUVEC lysates, HEG1 WT matrix
Method: PARD3 pulldown assay. Neutravidin agarose beads (Thermo Fisher) matrix with wild-type HEG1 cytoplasmic tail (1274-1381) and ΔYF (1274-1379) were previously described (5, 26). HUVEC were collected in cold lysis buffer (50 mM Tris-HCl, pH 7.4, 100 mM NaCl, 5 mM MgCl2, 0.5% NP-40) plus protease inhibitor cocktail (Roche). A total of 20 μl of HEG1 matrix was added to 600 μg of clarified lysates and incubated at 4° C. overnight while rotating. All conditions contained either vehicle DMSO, 35 μM HKi2 or 35 μM 2-hydroxy-1-naphthoic acid. After three washes with cold lysis buffer, beads were mixed with sample buffer and proteins were separated by SDS-PAGE. Bound PARD3 was detected by using polyclonal Rabbit anti-PARD3 (Millipore, 07-330) antibody.

klf2a = klf2a reporter Tg(klf2a:H2B-EGFP) zebrafish embryos; type: in vivo; conditions: 4 μM, 4 h, added at 26 hpf, imaged at 30 hpf
Description: Zebrafish. A previously reported transgenic zebrafish line Tg(klf2a:H2B-EGFP) was used to monitor the expression of klf2a (32, 33). […] At 30 hpf, these treated embryos were scanned for EGFP expression by Zeiss LSM 880 Airiscan.

HUVEC = assay: Genome-wide RNA sequencing of HUVEC; type: cell-based, human; conditions: 75 μM
Method: Cell culture. hCMEC/D3 cells at passages 30-37 were grown to confluence on collagen-coated plates and cultured using in EGM-2 MV medium and supplemented with complements obtained from the manufacturer (Lonza) as previously reported (31). HUVEC (Lonza) at passages 4-7 were grown to confluence on gelatin-coated plates and maintained using complete EGM-2 media (Lonza). HKi2, 10 mM in DMSO, was maintained at room temperature for 30 min rotating before use. Cells were then treated with HKi2 at the concentrations and times indicated for each experiment. Vehicle cells were treated with the same volume of DMSO as used with HKi2. Cells were maintained at 37° C. in 95% air and 5% CO2. Genome-wide RNA sequencing. The quantity (ND-1000 spectrophotometer; NanoDrop Technologies) and quality (Bioanalyzer; Agilent) of total RNA were analyzed. Only RNA with a RNA integrity number (RIN) greater than 8 RNA was used for library preparation. Libraries were generated using Illumina's TruSeq Stranded mRNA Sample Prep kit using 400 ng RNA. RNA libraries were multiplexed and sequenced with 100-bp […] single-end reads (SR100) to a depth of 30 million reads per sample on an Illumina HiSeq2500. Fastq files from RNA-seq experiments were mapped to the human genome (GRCh primary assembly release 96) using Hisat2 with default parameters. All bioinformatics analyses were conducted in R using the […] package RNAseq workflows. Differential gene expression analysis was conducted with EdgeR.

KLF4 and KLF2 mRNA [1] = assay: KLF4 and KLF2 mRNA expression in hCMEC/D3 cells by qPCR; type: cell-based, human
Method: (§1) Cell culture. hCMEC/D3 cells at passages 30-37 were grown to confluence on collagen-coated plates and cultured using in EGM-2 MV medium and supplemented with complements obtained from the manufacturer (Lonza) as previously reported (31). HUVEC (Lonza) at passages 4-7 were grown to confluence on gelatin-coated plates and maintained using complete EGM-2 media (Lonza). HKi2, 10 mM in DMSO, was maintained at room temperature for 30 min rotating before use. Cells were then treated with HKi2 at the concentrations and times indicated for each experiment. Vehicle cells were treated with the same volume of DMSO as used with HKi2. Cells were maintained at 37° C. in 95% air and 5% CO2. RNA extraction and qRT-PCR. HUVECs total RNA were isolated using MagMAXTM-96 for Microarrays Total RNA Isolation Kit, according to the manufacturer's protocol (Thermo Fisher Scientific Cat #AM1839). qPCR analysis, single-stranded cDNA was produced from 10 ng RNA isolated from HUVECs using PrimeScriptTM RT Master Mix according to the manufacturer's protocol (Takara Cat. #R[…]). The levels of genes were analyzed using iTaqTM Universal SYBR Green (BioRad Cat #1725122) and thermal cycler (CFX96 Real-Time System; Bio-Rad) according to the manufacturer's protocol. Actin mRNA levels was used as internal control, and the 2^-ΔΔCT method was used for data analysis.

KLF4 and KLF2 mRNA [2] = assay: KLF4 and KLF2 mRNA expression in HUVEC by qPCR; type: cell-based, human; conditions: dose response, 24 hours
Method: as §1

[3] = Aqueous solubility in assay buffer; type: physicochemical; conditions: qualitative, compared with HKi1
PI3K/Akt signaling = PI3K/Akt signaling in hCMEC/D3 cells by Western blot; type: cell-based, human; conditions: hCMEC/D3, 50 μM, 1 h
Method: Cell culture. hCMEC/D3 cells at passages 30-37 were grown to confluence on collagen-coated plates and cultured using in EGM-2 MV medium and supplemented with complements obtained from the manufacturer (Lonza) as previously reported (31). HUVEC (Lonza) at passages 4-7 were grown to confluence on gelatin-coated plates and maintained using complete EGM-2 media (Lonza). HKi2, 10 mM in DMSO, was maintained at room temperature for 30 min rotating before use. Cells were then treated with HKi2 at the concentrations and times indicated for each experiment. Vehicle cells were treated with the same volume of DMSO as used with HKi2. Cells were maintained at 37° C. in 95% air and 5% CO2. Western blotting and immunoprecipitation. […] Cell lysates were spun at 20,000×g for 15 minutes at 4° C. The PI3 Kinase was immunoprecipitated using the mouse monoclonal antibody as described in the manufacturer instructions and supernatants were stored at -80° C. Samples were resolved on 4-12% gradient gel and blotted using specific antibodies, as indicated. Band intensity was determined using a Li-Cor system and values obtained for phosphoproteins were normalized to the total protein in the same sample. Antibodies to phospho-Akt-Ser473 (clone: 193H12; rabbit mAb; #4058; 1:250), Akt (clone: 40D4; mouse mAb; #2920; 1:500), phospho-PI3 Kinase p85 […] (rabbit polyclonal; #4228; 1:500) were from Cell Signaling. […]

SMILES: O=Cc1c(O)ccc2ccccc12 [2-hydroxy-1-naphtaldehyde (Hki2), 2-hydroxy-1-naphthaldehyde]
- PARD3 binding to HEG1 (PARD3 binding to HEG1): no effects
- nuclear EGFP (klf2a reporter) in arterial and venous endothelium (klf2a): increase
- VEGFA gene expression (HUVEC; 24 h, RNA-seq): upregulation
- genes differentially expressed between treatment and vehicle control (HUVEC; 24 h, corrected P<0.05, ≥2.5-fold change): 457 genes
- CCL2 (Monocyte chemoattractant protein) expression, ratio experimental/control FPKM (HUVEC; RNA-Seq, n=3): −7.95
- CXCR4 (C-X-C chemokine receptor type 4) expression, ratio experimental/control FPKM (HUVEC; RNA-Seq, n=3): −4.41
- KLF2 expression, ratio experimental/control FPKM (HUVEC; RNA-Seq, n=3): 3.07
- KLF4 expression, ratio experimental/control FPKM (HUVEC; RNA-Seq, n=3): 3.89
- THBD (Thrombomodulin) expression, ratio experimental/control FPKM (HUVEC; RNA-Seq, n=3): 8.34
- THBSI (Thrombospondin 1) expression, ratio experimental/control FPKM (HUVEC; RNA-Seq, n=3): −5.78
- KLF4 and KLF2 mRNA levels (KLF4 and KLF2 mRNA [1]; hCMEC/D3, 25 μM, 12 h): upregulated
- KLF2 upregulation, fold increase (KLF4 and KLF2 mRNA [1]; hCMEC/D3, 50 μM, 4 h): ~1.5 fold
- KLF4 upregulation, fold increase (KLF4 and KLF2 mRNA [1]; hCMEC/D3, 50 μM, 4 h): ~3.5 fold
- KLF2 mRNA levels, fold increase (KLF4 and KLF2 mRNA [1]; hCMEC/D3, 50 μM, 12 h): ~2.3 fold
- KLF4 mRNA levels, fold increase (KLF4 and KLF2 mRNA [1]; hCMEC/D3, 50 μM, 12 h): ~6.5 fold
- KLF4 levels, fold increase (KLF4 and KLF2 mRNA [1]; hCMEC/D3, 50 μM, 24 h): ~6 fold
- KLF4 and KLF2 mRNA levels (KLF4 and KLF2 mRNA [2]): upregulated
- solubility in aqueous solution [3]: largely improved
- increase in Akt activation (pAkt-S473) (PI3K/Akt signaling; Western blot): 2.2 fold
- increase in PI3K activity (PI3K/Akt signaling; phospho-p85): 2 fold
